Experimental data taken from patent publication US10633375B2, “Oxopicolinamide derivative, preparation method therefor and pharmaceutical use thereof” (Jiangsu Hengrui Medicine Co., Ltd., priority 2016, dated 2020).
“And” between values parts separate entries of the source, which are not always exact repeats. Identical values can stand only once.

Tests used:
human blood = assay: In vitro anticoagulant effect on human blood (APTT, CT2); conditions: for CT2, concentration doubling APTT: concentration corresponding to 2 times the APTT of the blank control, human plasma
Protocol: Test Example 2: Determination of In Vitro Anticoagulant Effect of the Compounds of the Present Invention on Human Blood
1. Experimental Materials
Plasma: Human blood was collected in blood collection tubes containing no anticoagulant, and then 3.8% sodium citrate (volume ratio 1:9) was added. The tubes were centrifuged at 2500 rpm for 10 minutes at room temperature, and then the plasma was collected and stored at −80° C.;
Reagents: APTT reagent (Activated partial thromboplastin time assay kit, SIEMENS, Art. No. B4218-1), calcium chloride solution;
(§1) Instrument: Coagulation instrument (SYSMEX, CA-500).
The divided plasma was melted at room temperature and mixed well. 10000 μM the test compound dissolved in 100% DMSO was diluted to 3000, 300, 200, 150, 75, 30, 10, 3, 0.3 μM with 100% DMSO, and the blank was 100% DMSO. The reagent, plasma, and compound were placed in corresponding positions in the coagulation instrument, and APTT detection of the compound was carried out.
Curve fitting was carried out by graphpad and CT2 was calculated, i.e., the concentration of the compound corresponding to 2 times the APTT of the blank control.

[1] = Pharmacokinetics assay in rats after intragastrical administration; format: in vivo, Sprague-Dawley (SD) rats; conditions: both sexes, Sprague-Dawley, rat, plasma, po, SD rats, intragastric, 2 mg/kg; for Vd/F: read-out: Apparent Distribution Volume Vz/F; for AUC: read-out: Area Under Curve AUC; for CL/F: read-out: Clearance CLz/F; for half-life: read-out: Half-Life T½ (converted); for MRT: read-out: Mean Residence Time MRT; for Cmax: read-out: Plasma Concentration Cmax
Description: Test Example 3. Pharmacokinetics Assay of the Compounds of the Present Invention
Rats were used as test animals. […] The pharmacokinetic behavior of the compounds of the present invention was studied and evaluated in rats.
56 healthy adult Sprague-Dawley (SD) rats, half male and half female, were purchased from SINO-BRITSH SIPPR/BK LAB. ANIMAL LTD., CO, with License No.: SCXK (Shanghai) 2008-0016.
2.3 Preparation of the Test Compounds
A certain amount of the test compound was weighed, and added with 5% by volume of DMSO, 5% by volume of Tween 80 and 90% normal saline to prepare a 0.2 mg/mL colorless, clear and transparent solution.
After an overnight fast, SD rats were intragastrically administered at a dose of 2.0 mg/kg and an administration volume of 10.0 mL/kg.
Blood (0.2 mL) was taken from the orbital sinus before administration and at 0.5, 1.0, 2.0, 4.0, 6.0, 8.0, 11.0 and 24.0 hours after administration. The samples were stored in heparin anticoagulation tubes, and centrifuged for 10 minutes at 3500 rpm at 4° C. to separate the blood plasma. The plasma samples were stored at −20° C. The rats were fed 2 hours after administration.
(§2) The content of the test compound in the plasma of rats after intragastric administration of different concentrations of the drug was determined: 25 μL of rat plasma at each time after administration was taken and added with 30 μL (100 ng/mL) of the internal standard solution of camptothecin and 200 μL of acetonitrile, shaken vertically for 5 minutes, and centrifuged for 10 minutes (4000 rpm). 3.0 μL of the supernatant was taken from the plasma samples for LC/MS/MS analysis.
4. Results of Pharmacokinetic Parameters
Pharmacokinetic parameters of the compounds of the present invention in rats are shown below.

[2] = molecular target: Coagulation Factor XIa protease (Homo sapiens (Human), UniProt P03951); assay: Inhibition of Factor XIa detected by absorption photometry; format: biochemical; conditions: absorbance at 405 nm, 10 minutes at 37° C.
In short: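 Compounds were serially diluted in 100% DMSO (200-0.002 μM dilution series) before addition to the wells. FXIa enzyme solution at 2.5 μg/ml and substrate solution at 2 mM were then added, both stock concentrations. After 10 min at 37° C., absorbance was read at 405 nm.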

[3] = Pharmacokinetics assay in cynomolgus monkeys; format: in vivo; conditions: male, cynomolgus monkey, plasma, po, intragastric, 15 mg/kg; for Vd/F: read-out: Apparent Distribution Volume Vz/F; for AUC: read-out: Area Under Curve AUC; for CL/F: read-out: Clearance CLz/F; for half-life: read-out: Half-Life T½ (converted); for MRT: read-out: Mean Residence Time MRT; for Cmax: read-out: Plasma Concentration Cmax
Description: (§3) Test Example 4: Determination of APTT Value and Pharmacokinetic Assay in Cynomolgus Monkey
Cynomolgus monkeys were used as test animals. […] The pharmacokinetic behavior of the compounds of the present invention was studied and evaluated in the cynomolgus monkeys.
(§4) Six male cynomolgus monkeys (101, 102, 103, 201, 202 and 203) were purchased from Guangxi Xiongsen Primate Experimental Animal Breeding Development Co., Ltd.
(§5) Compounds of Example 5 and Example 108.
(§6) 4. Preparation of the Test Compounds
(§7) A certain amount of the test compound was weighed, and added with 2% by volume of DMSO, 78% by volume of PEG400 and 20% CMC-Na (0.5%) to prepare a 3.0 mg/mL colorless, clear and transparent solution.
(§8) After an overnight fast, cynomolgus monkeys were intragastrically administered at a dose of 15.0 mg/kg and an administration volume of 5.0 mL/kg.
7. Test Protocol of Pharmacokinetics Assay in Cynomolgus Monkeys
1.0 mL of blood was taken from the forelimb vein before administration and at 0.25, 0.5, 1, 2, 4, 6, 8, 12 and 24 hours after administration. The samples were stored in heparin anticoagulation tubes, and centrifuged for 10 minutes at 3500 rpm to separate the blood plasma. The plasma samples were stored at −80° C. The […] were fed 2 hours after administration.
as §2, with “of cynomolgus monkeys” for “of rats”, “of cynomolgus monkey” for “of rat”, “and 225” for “and 200”, “rpm). 1.0” for “rpm). 3.0”
7.2. Results of Pharmacokinetic Parameters in Cynomolgus Monkeys
Pharmacokinetic parameters of the compounds of the present invention in cynomolgus monkeys are shown below.

[4] = Determination of APTT value in cynomolgus monkeys; format: in vivo; conditions: cynomolgus monkey, individual animals; for APTT (sec) 1 hour / APTT (sec) 2 hours / APTT (sec) 4 hours / APTT (sec) 8 hours / APTT (sec) 12 hours: 15.0 mg/kg intragastric; for APTT (sec) 1 hour: 1 hour after administration; for APTT (sec) 2 hours: 2 hours after administration; for APTT (sec) 4 hours: 4 hours after administration; for APTT (sec) 8 hours: 8 hours after administration; for APTT (sec) 12 hours: 12 hours after administration; for APTT (sec) Before Administration: baseline before 15.0 mg/kg intragastric dose
Protocol: as §3, §4, §5, §6, §7, §8
6. Test Protocol for Determination of APTT Value in Cynomolgus Monkeys
6.1 Experimental Materials
Reagents: APTT reagent (Activated partial thromboplastin time assay kit, SIEMENS, Art. No. B4218-1), PEG-400 and CMC-Na;
as §1
6.2 Collection and Processing of APTT Plasma Sample
Blood was taken before administration and at 1 hour, 2 hours, 4 hours, 8 hours and 12 hours after administration. About 1.8 mL of blood was taken through femoral vein puncture in each animal for each time. Anticoagulated sodium citrate was added. After the blood sample was collected, it was placed in a pre-labeled centrifuge tube, and the plasma was separated by centrifugation (centrifugation conditions: 3500 rpm, 10 minutes, 2-8° C.). The plasma was stored in a −80° C. refrigerator for APTT assay.
6.3 APTT Assay Results in Cynomolgus Monkeys

Coagulation Factor XIa protease, sequence (P03951 388-625): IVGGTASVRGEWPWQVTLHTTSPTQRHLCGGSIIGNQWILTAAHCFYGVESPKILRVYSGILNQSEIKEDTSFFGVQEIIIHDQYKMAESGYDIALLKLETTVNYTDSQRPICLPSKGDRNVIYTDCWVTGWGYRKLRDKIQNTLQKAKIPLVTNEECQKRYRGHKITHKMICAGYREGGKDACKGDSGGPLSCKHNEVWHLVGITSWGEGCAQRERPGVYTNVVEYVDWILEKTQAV
Coagulation Factor XIa protease, sequence (P03951 19-387 partner): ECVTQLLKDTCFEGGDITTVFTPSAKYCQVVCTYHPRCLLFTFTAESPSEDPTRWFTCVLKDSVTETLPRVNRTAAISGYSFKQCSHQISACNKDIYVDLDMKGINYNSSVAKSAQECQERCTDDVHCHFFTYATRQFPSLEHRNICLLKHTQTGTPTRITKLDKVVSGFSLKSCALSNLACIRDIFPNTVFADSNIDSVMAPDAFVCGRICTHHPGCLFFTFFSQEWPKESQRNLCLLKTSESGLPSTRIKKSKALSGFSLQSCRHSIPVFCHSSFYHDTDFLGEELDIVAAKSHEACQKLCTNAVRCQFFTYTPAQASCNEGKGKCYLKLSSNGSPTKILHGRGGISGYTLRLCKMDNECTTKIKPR

With `CNC(=O)c1ccc(NC(=O)[C@H](Cc2ccccc2)n2cc(OC)c(-c3cc(Cl)ccc3C(C)=O)cc2=O)cc1` [Example 13, (S)-4-(2-(4-(2-acetyl-5-chlorophenyl)-5-methoxy-2-oxopyridin-1(2H)-yl)-3-phenylpropanamido)-N-methylbenzamide] the “CT2, concentration doubling APTT” value (human blood; Table 2) was 6.0 µM, the Vd/F [1] was 26.9 ± 14 L/kg and the AUC [1] was 241 ± 168 ng·h/mL. For the same compound, the CL/F [1] was 217 ± 151 mL/min/kg, the half-life [1] was 1.67 ± 0.48 h and the MRT [1] was 2.36 ± 1.05 h. For the same compound, the Cmax [1] was 119 ± 78 ng/mL and the IC50 [2] was 46 nM.
For `COc1cn([C@@H](Cc2ccccn2)C(=O)Nc2ccc(C(=O)O)cc2)c(=O)cc1-c1cc(Cl)ccc1C(C)=O` [Example 80, (S)-4-(2-(4-(2-acetyl-5-chlorophenyl)-5-methoxy-2-oxopyridin-1(2H)-yl)-3-(pyridin-2-yl)propanamido)benzoic acid], the “CT2, concentration doubling APTT” value (human blood; Table 2) was 7.9 µM, the Vd/F [1] was 15.8 ± 2.29 L/kg and the AUC [1] was 158 ± 45 ng·h/mL. The CL/F [1] was 222 ± 55.7 mL/min/kg, the half-life [1] was 0.85 ± 0.14 h and the MRT [1] was 1.85 ± 0.76 h. The Cmax [1] was 126 ± 50 ng/mL and the IC50 [2] was 40 nM.
With `COc1cn([C@@H](Cc2ccccc2)C(=O)Nc2ccc(C(=O)O)cc2)c(=O)cc1-c1cc(Cl)ccc1C(C)=O` [Example 5, (S)-4-(2-(4-(2-acetyl-5-chlorophenyl)-5-methoxy-2-oxopyridin-1(2H)-yl)-3-phenylpropanamido)benzoic acid] the “CT2, concentration doubling APTT” value (human blood; Table 2) was 2.0 µM, the Vd/F [1] was 4.98 ± 0.291 L/kg and the AUC [1] was 518 ± 63 ng·h/mL. It also gave a CL/F [1] of 65.1 ± 8.1 mL/min/kg, a half-life [1] of 0.89 ± 0.08 h and an MRT [1] of 6.64 ± 1.77 h. The Cmax [1] was 244 ± 77 ng/mL, the Vd/F [3] was 30.4 ± 12.6 L/kg and the AUC [3] was 4950 ± 2880 ng·h/mL. It also gave a CL/F [3] of 62 ± 32 mL/min/kg, a half-life [3] of 5.86 ± 1.1 h and an MRT [3] of 9.63 ± 0.78 h. The Cmax [3] was 688 ± 560 ng/mL, the “APTT (sec) 1 hour” value [4] was 36.8 s and 25.9 s and the “APTT (sec) 2 hours” value [4] was 33.3 s and 31.4 s and 27.2 s. The “APTT (sec) 4 hours” value [4] was 28.3 s and 26.1 s and 22.2 s, the “APTT (sec) 8 hours” value [4] was 27.3 s and 32.5 s and 24.8 s and the “APTT (sec) 12 hours” value [4] was 28.6 s and 23.8 s and 23.9 s. The “APTT (sec) Before Administration” value [4] was 17.2 s and 17.3 s and 19.1 s.
For `CCC(=O)c1ccc(Cl)cc1-c1cc(=O)n([C@@H](Cc2ccccc2)C(=O)Nc2ccc(C(=O)O)cc2)cc1OC` [Example 9, (S)-4-(2-(4-(5-chloro-2-propionylphenyl)-5-methoxy-2-oxopyridin-1(2H)-yl)-3-phenylpropanamido)benzoic acid], the “CT2, concentration doubling APTT” value (human blood; Table 2) was 2.4 µM, the Vd/F [1] was 31.5 ± 16.1 L/kg and the AUC [1] was 701 ± 615 ng·h/mL. It also gave a CL/F [1] of 69.8 ± 35.2 mL/min/kg, a half-life [1] of 5.55 ± 1.79 h and an MRT [1] of 6.78 ± 2.36 h. The Cmax [1] was 128 ± 50 ng/mL and the IC50 [2] was 14 nM.
In the case of `CCC(=O)c1ccc(Cl)cc1-c1cc(=O)n([C@@H](CCOC(C)(C)C)C(=O)Nc2ccc3nccnc3c2)cc1OC` [Example 114, (S)-4-(tert-butoxy)-2-(4-(5-chloro-2-propionylphenyl)-5-methoxy-2-oxopyridin-1(2H)-yl)-N-(quinoxalin-6-yl)butanamide], the “CT2, concentration doubling APTT” value (human blood; Table 2) is reported as 3.6 µM, the “CT2, concentration doubling APTT” value (human blood; Table 3 comparison) is reported as 2.9 µM and the “CT2 value ratio, Example 114 versus comparative Example 2” value (human blood; human blood, from Table 3) is reported as 4.5 times. The Vd/F [1] was 24 ± 11.1 L/kg, the AUC [1] was 168 ± 102 ng·h/mL and the CL/F [1] was 278 ± 182 mL/min/kg. It also gave a half-life [1] of 1.11 ± 0.25 h, an MRT [1] of 1.67 ± 0.23 h and a Cmax [1] of 91.2 ± 51.3 ng/mL. It also gave an IC50 [2] of 27 nM.
For `CCC(=O)c1ccc(Cl)cc1-c1cc(=O)n([C@@H](CCOC(C)(C)C)C(=O)Nc2ccc(C(=O)O)cc2)cc1OC` [Example 108, (S)-4-(4-(tert-butoxy)-2-(4-(5-chloro-2-propionylphenyl)-5-methoxy-2-oxopyridin-1(2H)-yl)butanamido)benzoic acid], the “CT2, concentration doubling APTT” value (human blood; Table 2) was 1.4 µM, the Vd/F [1] was 44.4 ± 3.45 L/kg and the AUC [1] was 452 ± 44 ng·h/mL. The CL/F [1] was 74.3 ± 6.9 mL/min/kg, the half-life [1] was 6.98 ± 1.22 h and the MRT [1] was 7.33 ± 0.48 h. The Cmax [1] was 105 ± 23 ng/mL, the Vd/F [3] was 59.1 ± 26.2 L/kg and the AUC [3] was 2700 ± 1340 ng·h/mL. The CL/F [3] was 120 ± 83 mL/min/kg, the half-life [3] was 6.32 ± 1.47 h and the MRT [3] was 8.81 ± 3.65 h. For the same compound, the Cmax [3] was 295 ± 102 ng/mL, the “APTT (sec) 1 hour” value [4] was 26.3 s and 31.2 s and 31.9 s and the “APTT (sec) 2 hours” value [4] was 27.5 s and 27.1 s and 28.5 s. The “APTT (sec) 4 hours” value [4] was 28.7 s and 24.1 s and 28.6 s, the “APTT (sec) 8 hours” value [4] was 26.9 s and 20.3 s and 26.3 s and the “APTT (sec) 12 hours” value [4] was 27.3 s and 19 s and 21.5 s. The “APTT (sec) Before Administration” value [4] was 17.5 s and 18.5 s and 17.6 s.
With `COc1cn([C@@H](Cc2ccccc2)C(=O)Nc2ccc(C(N)=O)cc2)c(=O)cc1-c1cc(Cl)ccc1C(C)=O` [Example 11, (S)-4-(2-(4-(2-acetyl-5-chlorophenyl)-5-methoxy-2-oxopyridin-1(2H)-yl)-3-phenylpropanamido)benzamide] the “CT2, concentration doubling APTT” value (human blood; Table 2) was 4.2 µM, the Vd/F [1] was 40.2 ± 18.6 L/kg and the AUC [1] was 125 ± 50 ng·h/mL. For the same compound, the CL/F [1] was 299 ± 111 mL/min/kg, the half-life [1] was 1.53 ± 0.33 h and the MRT [1] was 2.12 ± 0.17 h. For the same compound, the Cmax [1] was 73.1 ± 32.3 ng/mL and the IC50 [2] was 13 nM.
